Measured values published in US12257184B2, “Ocular device and drug delivery system, with case” (priority 2019, dated 2025).

Experiment: Ex vivo release of therapeutic agent from insert into phosphate buffer, UV scanning spectrophotometer
Type: physicochemical
Conditions: drug 20%, phosphate buffer pH 7, 37° C.
Description: Ocular Daily Wear is defined by FDA Class II CFR 866.5925 products currently indicated for ocular use and sclera tissue contact.
To begin testing, a UV scanning spectrophotometer concentration calibration curve for the therapeutic agent was established. The insert was prepared to the specification in the particular Table, and the time duration sample plan for measurement was determined. The insert was weighed to establish T=0. The insert was immersed in phosphate buffer of a fixed constant volume. A mean body temperature of 37° C. (e.g., from about 36.5° C. to about 37.5° C.) was simulated for the identified time interval. The insert was transferred and immersed at the end of each time period into a new phosphate buffer test container. The simulated mean 37° C.-body temperature was continued to next time interval. The UV scanning spectrophotometer data was generated for each time interval sample. The release rate was calculated versus time for the therapeutic agent, and graphical plots of the data were generated.

[1] = Table 8, In Device, 3 Component: EVA (40% vinyl acetate) 40%, PEO 40%
[2] = Table 8, Rod, 2 Component: EVA (40% vinyl acetate) 80%, no PEO
[3] = Table 9, In Device, 3 Component: EVA (40% vinyl acetate) 40%, PEO 40%

1 Day % Release [1]	2 Day % Release [1]	1 Day % Release (Table 8, In Device, 3 Component: EVA (40% vinyl acetate) 40%, PEO 40%, listed as dexamethasone phosphate)	1 Day % Release [2]	1 Day % Release [3]	2 Day % Release [3]	Compound
82.7%	85.3%	82.7%	3.39%			C[C@@H]1C[C@H]2[C@@H]3CCC4=CC(=O)C=C[C@]4(C)[C@@]3(F)[C@@H](O)C[C@]2(C)[C@@]1(O)C(=O)COP(=O)(O)O [Dexamethasone Phosphate]
			1.89%			CC(=O)OCC(=O)[C@@]1(O)[C@H](C)C[C@H]2[C@@H]3CCC4=CC(=O)C=C[C@]4(C)[C@@]3(F)[C@@H](O)C[C@@]21C [Dexamethasone 21 Acetate]
				35%	43%	CN(C)CC/C=C1/c2ccccc2COc2ccc(CC(=O)O)cc21 [Olopatadine FB, Olopatadine]
